The target of one assay is SMARCA2 (Homo sapiens, UniProt P51531). Put plainly: HiBit assay in engineered HT1080 CRISPR knock-in cell, 6 hrs (B series), SMARCA2. It is filed as cell-based. Conditions: 6 hrs incubation; for DC50: read-out: SMARC A2 HT1080 HiBit DC50; for Dmax: HT-1080, HT1080 CRISPR knock-in cells, read-out: SMARC A2 HT1080 HiBit Dmax (%). Put shortly: (§1)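 Compounds were dispensed first, then HT1080 knock-in cells added and incubated for 6 hrs at 37° C. Next, detection reagent containing LgBiT and lytic substrate was added. Plates were shaken 10 min and centrifuged, and luminescence was measured.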

In a further assay the target is SMARCA4 (Homo sapiens, UniProt P51532). Kind of assay: HiBit assay in engineered HT1080 CRISPR knock-in cell, 6 hrs (B series), SMARCA4. It counts as cell-based. To be noted: 6 hrs incubation; for DC50: HT1080 CRISPR knock-in cells, read-out: SMARC A4 HT1080 HiBit DC50; for Dmax: HT-1080, HT1080 CRISPR knock-in cells, read-out: SMARC A4 HT1080 HiBit Dmax(%). In a few lines: as §1
(With HiBiT, luminescence reflects the tagged protein that the partner subunit can reach.)

The record followed here is patent publication US20260092071A1, “COMPOUNDS AND COMPOSITIONS AS SMARCA2/4 DEGRADERS AND USES THEREOF” (REGENTS OF THE UNIVERSITY OF MICHIGAN, priority 2022, published 2026).

SMARCA4, sequence (P51532 whole entry): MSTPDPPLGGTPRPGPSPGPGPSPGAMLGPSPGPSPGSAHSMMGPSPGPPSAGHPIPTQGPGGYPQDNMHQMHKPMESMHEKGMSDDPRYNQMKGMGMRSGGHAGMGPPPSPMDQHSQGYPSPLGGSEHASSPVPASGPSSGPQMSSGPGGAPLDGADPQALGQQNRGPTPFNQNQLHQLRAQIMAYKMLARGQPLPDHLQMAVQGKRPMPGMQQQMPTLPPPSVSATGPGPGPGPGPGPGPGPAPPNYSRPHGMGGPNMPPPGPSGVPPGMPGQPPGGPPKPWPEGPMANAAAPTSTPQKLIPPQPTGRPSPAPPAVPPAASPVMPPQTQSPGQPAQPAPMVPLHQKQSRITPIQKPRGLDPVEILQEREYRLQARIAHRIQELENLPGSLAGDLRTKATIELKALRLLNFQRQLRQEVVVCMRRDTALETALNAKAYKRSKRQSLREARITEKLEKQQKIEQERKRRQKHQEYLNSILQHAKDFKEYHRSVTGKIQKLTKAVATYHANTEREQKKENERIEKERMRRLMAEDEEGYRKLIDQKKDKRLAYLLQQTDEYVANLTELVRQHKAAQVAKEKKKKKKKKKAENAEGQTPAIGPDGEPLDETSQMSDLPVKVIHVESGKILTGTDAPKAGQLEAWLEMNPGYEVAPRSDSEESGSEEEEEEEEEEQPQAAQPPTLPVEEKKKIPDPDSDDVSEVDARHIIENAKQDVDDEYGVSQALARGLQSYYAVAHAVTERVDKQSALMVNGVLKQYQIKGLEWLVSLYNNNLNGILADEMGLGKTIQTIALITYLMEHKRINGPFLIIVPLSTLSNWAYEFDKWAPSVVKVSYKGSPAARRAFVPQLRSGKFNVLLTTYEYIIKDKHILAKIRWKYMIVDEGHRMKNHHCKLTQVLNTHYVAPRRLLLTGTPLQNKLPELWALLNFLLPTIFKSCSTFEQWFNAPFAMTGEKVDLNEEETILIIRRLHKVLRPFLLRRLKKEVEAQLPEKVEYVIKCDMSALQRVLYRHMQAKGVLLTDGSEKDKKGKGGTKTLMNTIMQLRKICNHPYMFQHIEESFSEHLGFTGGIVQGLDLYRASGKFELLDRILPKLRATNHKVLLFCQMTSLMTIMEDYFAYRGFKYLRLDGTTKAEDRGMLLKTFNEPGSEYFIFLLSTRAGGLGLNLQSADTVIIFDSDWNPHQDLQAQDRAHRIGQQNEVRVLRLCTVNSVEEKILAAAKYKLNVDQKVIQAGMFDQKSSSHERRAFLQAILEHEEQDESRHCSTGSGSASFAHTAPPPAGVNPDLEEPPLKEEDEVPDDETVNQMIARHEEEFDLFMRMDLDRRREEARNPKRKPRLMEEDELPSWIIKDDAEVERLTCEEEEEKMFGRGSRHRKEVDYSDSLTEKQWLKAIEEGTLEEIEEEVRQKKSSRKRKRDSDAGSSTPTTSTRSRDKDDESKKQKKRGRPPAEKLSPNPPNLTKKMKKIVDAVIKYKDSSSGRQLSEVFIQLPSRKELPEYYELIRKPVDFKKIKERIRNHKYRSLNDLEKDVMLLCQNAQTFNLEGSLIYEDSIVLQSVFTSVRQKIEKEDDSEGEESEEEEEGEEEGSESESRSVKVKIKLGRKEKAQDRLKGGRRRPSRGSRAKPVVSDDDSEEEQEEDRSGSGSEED
SMARCA2, sequence (P51531 whole entry): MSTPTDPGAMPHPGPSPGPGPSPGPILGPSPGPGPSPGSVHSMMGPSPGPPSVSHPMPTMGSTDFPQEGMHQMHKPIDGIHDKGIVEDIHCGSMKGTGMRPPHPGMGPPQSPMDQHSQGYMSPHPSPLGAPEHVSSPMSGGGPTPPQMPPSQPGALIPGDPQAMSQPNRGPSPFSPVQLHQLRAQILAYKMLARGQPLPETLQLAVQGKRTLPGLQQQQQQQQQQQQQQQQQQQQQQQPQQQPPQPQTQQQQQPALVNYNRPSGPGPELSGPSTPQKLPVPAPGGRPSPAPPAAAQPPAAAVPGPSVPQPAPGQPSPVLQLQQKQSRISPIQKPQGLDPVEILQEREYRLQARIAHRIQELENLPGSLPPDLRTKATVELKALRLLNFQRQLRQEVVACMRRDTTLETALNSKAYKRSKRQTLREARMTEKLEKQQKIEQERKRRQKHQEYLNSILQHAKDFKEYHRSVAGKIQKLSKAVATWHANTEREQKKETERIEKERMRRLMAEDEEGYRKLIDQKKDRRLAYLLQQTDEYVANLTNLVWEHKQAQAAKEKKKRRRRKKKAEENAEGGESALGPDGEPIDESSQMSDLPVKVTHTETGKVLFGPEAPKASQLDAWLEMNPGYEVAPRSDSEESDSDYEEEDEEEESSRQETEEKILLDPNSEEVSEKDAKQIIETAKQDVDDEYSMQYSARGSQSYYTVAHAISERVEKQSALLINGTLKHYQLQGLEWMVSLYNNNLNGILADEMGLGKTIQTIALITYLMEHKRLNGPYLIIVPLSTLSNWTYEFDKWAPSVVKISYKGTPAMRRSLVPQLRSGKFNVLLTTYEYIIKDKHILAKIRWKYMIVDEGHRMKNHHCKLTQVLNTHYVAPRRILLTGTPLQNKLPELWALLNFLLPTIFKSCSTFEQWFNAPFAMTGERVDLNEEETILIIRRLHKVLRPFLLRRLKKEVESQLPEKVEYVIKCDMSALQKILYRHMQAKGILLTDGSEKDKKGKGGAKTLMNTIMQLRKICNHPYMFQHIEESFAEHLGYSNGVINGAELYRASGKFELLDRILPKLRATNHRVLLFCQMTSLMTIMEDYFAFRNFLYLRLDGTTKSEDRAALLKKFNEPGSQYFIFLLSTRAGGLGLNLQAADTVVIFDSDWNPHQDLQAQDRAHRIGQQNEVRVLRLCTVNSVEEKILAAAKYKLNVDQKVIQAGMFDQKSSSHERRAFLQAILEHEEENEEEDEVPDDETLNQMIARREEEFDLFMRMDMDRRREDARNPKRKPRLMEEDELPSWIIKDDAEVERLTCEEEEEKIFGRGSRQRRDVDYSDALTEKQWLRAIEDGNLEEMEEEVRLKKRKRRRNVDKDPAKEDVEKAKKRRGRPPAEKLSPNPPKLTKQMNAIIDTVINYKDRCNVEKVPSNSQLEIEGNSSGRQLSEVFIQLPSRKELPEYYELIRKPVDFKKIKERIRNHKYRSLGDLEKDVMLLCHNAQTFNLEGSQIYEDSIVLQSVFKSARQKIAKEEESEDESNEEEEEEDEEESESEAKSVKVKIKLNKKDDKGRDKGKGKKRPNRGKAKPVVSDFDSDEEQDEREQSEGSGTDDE

For the compound `Cc1cc(C(C(=O)N2C[C@H](O)C[C@H]2C(=O)N[C@@H](C)c2ccc(-c3scnc3C#CCOCCCN3CCC(c4cccc5c4C(C)(C)c4nc(=O)c6c(Cl)cccc6n4-5)CC3)cc2)C(C)C)on1` (stereo partly drawn) [Compound B145, (2S,4R)-N-((S)-1-(4-(4-(3-(3-(4-(4-chloro-7,7-dimethyl-5-oxo-5,7-dihydroindolo[1,2-a]quinazolin-8-yl)piperidin-1-yl)propoxy)prop-1-yn-1-yl)thiazol-5-yl)phenyl)ethyl)-4-hydroxy-1-(3-methyl-2-(3-methylisoxazol-5-yl)butanoyl)pyrrolidine-2-carboxamide], the DC50 on SMARCA2 (HT1080 CRISPR knock-in cells) and on SMARCA4 was 100 to 500 nM in each case. The Dmax fell in the range of 70 to 90% on SMARCA2 and 50 to 69% on SMARCA4.

Regarding `Cc1ncsc1-c1ccc2c(c1)CCC[C@@H]2NC(=O)[C@@H]1C[C@@H](O)CN1C(=O)[C@@H](n1cc([C@H]2CC[C@H](CN3CCC(c4ccc5c(c4)-n4c(nc(=O)c6c(Cl)cccc64)C5(C)C)CC3)CC2)nn1)C(C)(C)C` [Compound B146, (2S,4R)-1-((S)-2-(4-((1r,4S)-4-((4-(4-chloro-7,7-dimethyl-5-oxo-5,7-dihydroindolo[1,2-a]quinazolin-10-yl)piperidin-1-yl)methyl)cyclohexyl)-1H-1,2,3-triazol-1-yl)-3,3-dimethylbutanoyl)-4-hydroxy-N-((S)-6-(4-methylthiazol-5-yl)-1,2,3,4-tetrahydronaphthalen-1-yl)pyrrolidine-2-carboxamide], the DC50 is under 100 nM at SMARCA2 (HT1080 CRISPR knock-in cells) and 100 to 500 nM at SMARCA4. In addition, the values for the Dmax on SMARCA2 and on SMARCA4 were over 90% and 50 to 69%, respectively.

With `Cc1cc([C@H](C(=O)N2C[C@H](O)C[C@H]2C(=O)N[C@@H](C)c2ccc(-c3scnc3C(=O)NCCCCOCCN3CCC(c4ccc5c(c4)-n4c(nc(=O)c6c(Cl)cccc64)C5(C)C)CC3)cc2)C(C)C)on1` [Compound B147, N-(4-(2-(4-(4-chloro-7,7-dimethyl-5-oxo-5,7-dihydroindolo[1,2-a]quinazolin-10-yl)piperidin-1-yl)ethoxy)butyl)-5-(4-((S)-1-((2S,4R)-4-hydroxy-1-((R)-3-methyl-2-(3-methylisoxazol-5-yl)butanoyl)pyrrolidine-2-carboxamido)ethyl)phenyl)thiazole-4-carboxamide], the DC50 at SMARCA2 (HT1080 CRISPR knock-in cells) lay in the range of 100 to 500 nM; on SMARCA4, 501 to 1000 nM. For the same compound, the Dmax at SMARCA2 and at SMARCA4 was 50 to 69% each time.

Regarding `Cc1ncsc1-c1ccc2c(NC(=O)[C@@H]3C[C@@H](O)CN3C(=O)[C@@H](n3cc([C@H]4CC[C@H](CN5CCC(c6ccc7c(c6)-n6c(nc(=O)c8c(Cl)cccc86)C7(C)C)CC5)CC4)nn3)C(C)(C)C)n[nH]c2c1` [Compound B148, (2S,4R)-1-((S)-2-(4-((1r,4S)-4-((4-(4-chloro-7,7-dimethyl-5-oxo-5,7-dihydroindolo[1,2-a]quinazolin-10-yl)piperidin-1-yl)methyl)cyclohexyl)-1H-1,2,3-triazol-1-yl)-3,3-dimethylbutanoyl)-4-hydroxy-N-(6-(4-methylthiazol-5-yl)-1H-indazol-3-yl)pyrrolidine-2-carboxamide], the DC50 is 100 to 500 nM at SMARCA2 (HT1080 CRISPR knock-in cells) and under 100 nM on SMARCA4. The Dmax at SMARCA2 and at SMARCA4 was under 50% each time.

In the case of `Cc1cc(-c2scnc2C)ccc1[C@H](C)NC(=O)[C@@H]1C[C@@H](O)CN1C(=O)[C@@H](n1cc([C@H]2CC[C@H](CN3CCC(c4ccc5c(c4)-n4c(nc(=O)c6c(Cl)cccc64)C5(C)C)CC3)CC2)nn1)C(C)(C)C` [Compound B149, (2S,4R)-1-((S)-2-(4-((1r,4S)-4-((4-(4-chloro-7,7-dimethyl-5-oxo-5,7-dihydroindolo[1,2-a]quinazolin-10-yl)piperidin-1-yl)methyl)cyclohexyl)-1H-1,2,3-triazol-1-yl)-3,3-dimethylbutanoyl)-4-hydroxy-N-((S)-1-(2-methyl-4-(4-methylthiazol-5-yl)phenyl)ethyl)pyrrolidine-2-carboxamide], the DC50 on SMARCA2 (HT1080 CRISPR knock-in cells) and on SMARCA4 was under 100 nM each time. Also, the Dmax was over 90% on SMARCA2 and 70 to 90% at SMARCA4.

Take `Cc1cc(C(C(=O)N2C[C@H](O)C[C@H]2C(=O)N[C@@H](C)c2ccc(-c3scnc3C#CCN3CCC(c4cccc5c4C(C)(C)c4nc(=O)c6c(Cl)cccc6n4-5)CC3)cc2)C(C)C)on1` (stereo partly drawn) [Compound B150, (2S,4R)-N-((S)-1-(4-(4-(3-(4-(4-chloro-7,7-dimethyl-5-oxo-5,7-dihydroindolo[1,2-a]quinazolin-8-yl)piperidin-1-yl)prop-1-yn-1-yl)thiazol-5-yl)phenyl)ethyl)-4-hydroxy-1-(3-methyl-2-(3-methylisoxazol-5-yl)butanoyl)pyrrolidine-2-carboxamide]: the DC50 on SMARCA2 (HT1080 CRISPR knock-in cells) was under 100 nM; at SMARCA4, 100 to 500 nM. The Dmax was 50 to 69% on SMARCA2 and under 50% at SMARCA4.

`Cc1ncsc1-c1ccc2c(c1)CCC[C@H]2NC(=O)[C@@H]1C[C@@H](O)CN1C(=O)[C@@H](n1cc([C@H]2CC[C@H](CN3CCC(c4ccc5c(c4)-n4c(nc(=O)c6c(Cl)cccc64)C5(C)C)CC3)CC2)nn1)C(C)(C)C` [Compound B151, (2S,4R)-1-((S)-2-(4-((1r,4S)-4-((4-(4-chloro-7,7-dimethyl-5-oxo-5,7-dihydroindolo[1,2-a]quinazolin-10-yl)piperidin-1-yl)methyl)cyclohexyl)-1H-1,2,3-triazol-1-yl)-3,3-dimethylbutanoyl)-4-hydroxy-N-((R)-6-(4-methylthiazol-5-yl)-1,2,3,4-tetrahydronaphthalen-1-yl)pyrrolidine-2-carboxamide]: the DC50 is under 100 nM on SMARCA2 (HT1080 CRISPR knock-in cells) and 100 to 500 nM at SMARCA4. For the same compound, the Dmax was over 90% at SMARCA2 and 50 to 69% on SMARCA4.

Take `Cc1cc(C(C(=O)N2C[C@H](O)C[C@H]2C(=O)N[C@@H](CCN2CCC(c3cccc4c3C(C)(C)c3nc(=O)c5c(Cl)cccc5n3-4)CC2)c2ccc(-c3scnc3C)cc2)C(C)C)on1` (stereo partly drawn) [Compound B152, (2S,4R)—N—((S)-3-(4-(4-chloro-7,7-dimethyl-5-oxo-5,7-dihydroindolo[1,2-a]quinazolin-8-yl)piperidin-1-yl)-1-(4-(4-methylthiazol-5-yl)phenyl)propyl)-4-hydroxy-1-(3-methyl-2-(3-methylisoxazol-5-yl)butanoyl)pyrrolidine-2-carboxamide]: on SMARCA2 (HT1080 CRISPR knock-in cells), the “SMARC A2 HT1080 HiBit Dmax (%)” value is listed as “A (A (>90% degradation))” and the DC50 was under 100 nM. On SMARCA4, the DC50 was under 100 nM and the Dmax lay in the range of 70 to 90%.

With `Cc1cc(C(C(=O)N2C[C@H](O)C[C@H]2C(=O)N[C@@H](CN2CCC(c3cccc4c3C(C)(C)c3nc(=O)c5c(Cl)cccc5n3-4)CC2)c2ccc(-c3scnc3C)cc2)C(C)C)on1` (stereo partly drawn) [Compound B153, (2S,4R)-N-((R)-2-(4-(4-chloro-7,7-dimethyl-5-oxo-5,7-dihydroindolo[1,2-a]quinazolin-8-yl)piperidin-1-yl)-1-(4-(4-methylthiazol-5-yl)phenyl)ethyl)-4-hydroxy-1-(3-methyl-2-(3-methylisoxazol-5-yl)butanoyl)pyrrolidine-2-carboxamide], the DC50 on SMARCA2 (HT1080 CRISPR knock-in cells) and on SMARCA4 was under 100 nM each time. Further, the Dmax at SMARCA2 and at SMARCA4 was 70 to 90% in each case.
